Values after ≈ are worked out from the molar mass of the structure shown.
What was measured:
Mus musculus [1] = test: In vitro antimalarial activity against chloroquine-resistant (Smith) isolates of Plasmodium falciparum at dose 160 mg/kg in mice (Mus musculus); type: functional
Mus musculus [2] = test: In vivo toxicity against chloroquine-resistant (Smith) isolates of Plasmodium berghei in mice (Mus musculus); type: functional

Structure (SMILES)	ED50 (Mus musculus [1])	Toxicity (Mus musculus [2])
CC1=C[C@H]2C[C@]3(C)CC[C@H]4[C@H](C)C(=O)O[C@@H]4C13OO2 (single isomer, unassigned)	0.72859 µg/mL (≈ 2.76 µM)	640 mg/kg
C[C@@H]1CC[C@H]2[C@@H](C)C(=O)O[C@@H]3O[C@@]4(C)CC[C@@H]1[C@]32OO4 [ARTEMISININ]	<0.0034 µg/mL	–

Source: ChEMBL document CHEMBL1122855, “Antimalarial agents. 1. alpha-Santonin-derived cyclic peroxide as potential antimalarial agent” (1985)
